The values below come from patent US7247626B2, “Pyrazolopyrimidine derivatives and pharmaceutical compositions containing them” (SmithKline Beecham Corporation, priority 2002, dated 2007).

The experiment has as its system HSV-1. The experiment can be described thus: HSV-1 infection of Vero 76 cells, viral DNA hybridization capture assay. Conditions: Human alphaherpesvirus 1; HSV-1 (MOI=0.001) in Vero 76 cells, 40–48 hours incubation, HSV DNA hybridization with chemiluminescence detection. Type of experiment: cell-based. The method, then: Vero 76 cells were maintained in MEM with Earle's salts, L-glutamine, 8% FBS (Hyclone, A-1111-L) and 100 units/mL Penicillin-100 μg/mL Streptomycin. For assay conditions, FBS was reduced to 2%. Cells are seeded into 96-well tissue culture plates at a density of 5×10^4 cells/well after being incubated for 45 min at 37° C. in the presence of HSV-1 or HSV-2 (MOI=0.001). Test compounds are added to the wells and the plates are incubated at 37° C. for 40–48 hours. Cell lysates are prepared as follows: media was removed and replaced with 150 μL/well 0.2 N NaOH with 1% Igepal CA 630 or NP-40. Plates were incubated up to 14 days at room temperature in a humidified chamber to prevent evaporation.
For the detection probe, a gel-purified, digoxigenin-labeled, […] PCR fragment of the HSV UL-15 sequence was utilized. PCR conditions included 0.5 μM primers, 180 μM dTTP, 20 μM dUTP-digoxigenin (Boehringer Mannheim 1558706), 200 μM each of dATP, dCTP, and dGTP, 1×PCR Buffer II (Perkin Elmer), 2.5 mM, MgCl2, 0.025 units/μL of AmpliTaq Gold polyerase (Perkin Elmer), and 5 ng a gel-purified HSV DNA per 100 μL Extension conditions were 10 min at 95° C., followed by 30 cycles of 95° C. for 1 min, 55° C. for 30 sec, and 72° C. for 2 min. The amplification was completed with a 10-min incubation at 72° C. Primers were selected to amplify a 728 bp probe spanning a section of the HSV1 UL15 open reading frame (nucleotides 249–977). Single-stranded transcripts were purified with Promega M13 Wizard kits. The final product was mixed 1:1 with a mixture of 6 M GuSCN, 100 mM EDTA and 200 μg/mL herring sperm DNA and stored at 4° C.
The capture DNA plasmid (HSV UL13 region in pUC) was linearized by cutting with Xba I, denatured for 15 min at 95° C. and diluted immediately into Reacti-Bind DNA Coating Solution (Pierce, 17250, diluted 1:1 with TE buffer, pH 8) at 1 ng/μL 75 μl/well were added to Corning (#3922 or 9690) white 96-well plates and incubated at room temperature for at least 4 hrs before washing twice with 300 μL/well 0.2×SSC/0.05% Tween-20 (SSC/T buffer). The plates were then incubated overnight at room temperature with 150 μL/well 0.2 N NaOH, 1% IGEPAL and 10 μg/mL herring sperm DNA.
Twenty-seven (27) μL of cell lysate was combined with 45 μL of hydridization solution (final concentration: 3M GuSCN, 50 mM EDTA, 100 μg/ml salmon sperm DNA, 5× Denhardt's solution, 0.25× APE, and 5 ng of the digoxigenin-labeled detection probe). APE is 1.5 M NH4-acetate, 0.15 M NH4H2phosphate, and 5 mM EDTA adjusted to pH 6.0. Mineral oil (50 μL) was added to prevent evaporation. The hybridization plates were incubated at 95° C. for 10 minutes to denature the DNA, then incubated at 42° C. overnight. The wells were washed 6× with 300 μL/well SSC/T buffer then incubated with 75 μL/well anti-digoxigenin-HRP-conjugated antibody (Boehringer Mannheim 1207733, 1:5000 in TE) for 30 min at room temperature. The wells were washed 6× with 300 μL/well with PBS/0.05% Tween-20 before 75 μL/well SuperSignal LBA substrate (Pierce) was added. The plates were incubated at room temperature for 30 minutes and chemiluminescence was measured in a Wallac Vietor reader.
The following results were obtained for HSV-1.
Take `COCCOc1ccc(-c2nn3c(NC4CCCC4)nccc3c2-c2ccnc(NC3CCCC3)n2)cc1` [Example 27, N-Cyclopentyl-3-[2-(cyclopentylamino)pyrimidin-4-yl]-2-[4-(2-methoxyethoxy)phenyl]pyrazolo[1,5-c]pyrimidin-7-amine]: the IC50 turned out to be 1000 nM. `CCCOc1ccc(-c2nn3c(NC4CCCC4)nccc3c2-c2ccnc(NC3CCCC3)n2)cc1` [Example 28, N-Cyclopentyl-3-[2-(cyclopentylamino)pyrimidin-4-yl]-2-(4-propoxyphenyl)pyrazolo[1,5-c]pyrimidin-7-amine]: the IC50 was found to be 500 nM.

Take `CC(C)(C)Nc1nccc2c(-c3ccnc(NC4CCCC4)n3)c(-c3ccc(F)cc3)nn12` [Example 29, N-(tert-Butyl)-3-[2-(cyclopentylamino)pyrimidin-4-yl]-2-(4-fluorophenyl)pyrazolo[1,5-c]pyrimidin-7-amine]: the IC50 is 7000 nM.

Compound `Fc1ccc(-c2nn3c(N4CCCC4)nccc3c2-c2ccnc(NC3CCCC3)n2)cc1` [Example 30, N-Cyclopentyl-4-[2-(4-fluorophenyl)-7-pyrrolidin-1-ylpyrazolo[1,5-c]pyrimidin-3-yl]pyrimidin-2-amine] showed an IC50 of 2000 nM.

Consider `Fc1ccc(-c2nn3c(N4CCCCC4)nccc3c2-c2ccnc(NC3CCCC3)n2)cc1` [Example 31, N-Cyclopentyl-4-[2-(4-fluorophenyl)-7-piperidin-1-ylpyrazolo[1,5-c]pyrimidin-3-yl]pyrimidin-2-amine], for which it took 1000 nM to reach half-maximal inhibition (IC50).

For orientation: IC50 means the concentration needed to halve the response being measured. Read a high IC50 as weaker potency in that assay.
